The test addresses T1, 3',5'-cyclic-AMP phosphodiesterase 4B (Homo sapiens, UniProt Q07343).
T1 construct: gene PDE4B
The experiment in a line: In Vitro Detection of the Inhibitory Activity of Compounds Against PDE 4B Enzyme. How it is done:
The recombinant human PDE4B enzyme and enzyme substrate (1 μM cAMP) were each dissolved in newly prepared experimental buffer solution;2. The PDE4B enzyme buffer solution was transferred into reaction wells;3. The compound which was dissolved in 100% DMSO was added to the reaction wells containing PDE4B enzyme buffer solution by acoustic technique (echo 550; […]) and the mixture was incubated for 10 minutes at room temperature;4. The enzyme substrate buffer solution was added to the above reaction wells to initiate reaction;5. The resulting mixture was incubated at room temperature for 1 hour;6. The detection mixture (Transcreener AMP2/GMP2 antibody and AMP2/GMP2 AlexaFluor633 tracer) was added to stop the reaction, and the resulting mixture was incubated for 90 minutes while slowly mixing.

Structures are written as SMILES. pIC50: −log10 of the molar value.

By pIC50 is commonly meant −log10 of the IC50, conventionally taken in molar units. Low readings indicate a large IC50, high ones a small IC50.

T1 sequence (Q07343 whole entry, looked up): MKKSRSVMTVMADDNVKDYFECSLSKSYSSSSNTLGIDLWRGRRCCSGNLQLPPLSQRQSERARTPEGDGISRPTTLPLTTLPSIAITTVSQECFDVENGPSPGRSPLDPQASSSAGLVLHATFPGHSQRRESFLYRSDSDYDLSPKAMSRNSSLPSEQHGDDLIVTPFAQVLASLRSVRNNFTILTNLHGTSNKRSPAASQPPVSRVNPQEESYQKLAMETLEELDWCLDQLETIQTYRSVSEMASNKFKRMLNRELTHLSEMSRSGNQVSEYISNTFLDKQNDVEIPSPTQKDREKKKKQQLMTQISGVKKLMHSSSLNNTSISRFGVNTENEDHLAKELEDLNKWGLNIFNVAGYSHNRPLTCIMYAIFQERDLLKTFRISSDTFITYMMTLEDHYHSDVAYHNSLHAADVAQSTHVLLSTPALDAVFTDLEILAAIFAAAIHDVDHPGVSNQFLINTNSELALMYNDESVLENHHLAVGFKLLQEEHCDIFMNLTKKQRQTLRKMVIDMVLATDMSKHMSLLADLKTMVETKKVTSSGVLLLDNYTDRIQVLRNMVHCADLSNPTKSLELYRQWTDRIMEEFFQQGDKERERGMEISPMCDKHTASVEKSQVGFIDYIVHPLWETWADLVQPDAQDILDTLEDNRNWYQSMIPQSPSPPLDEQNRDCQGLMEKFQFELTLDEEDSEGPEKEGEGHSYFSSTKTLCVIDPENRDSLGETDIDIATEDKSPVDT

For the compound `CCOc1cc2c(cc1OC)-c1c/c(=N\c3c(C)cc(C)cc3C)n(CCN3CCOC3=O)c(=O)n1CC2` [US11993596, Compound WX001], the pIC50 was 8.19. `CCOc1cc2c(cc1OC)-c1c/c(=N\c3c(C)cc(C)cc3C)n(CCNc3nc[nH]n3)c(=O)n1CC2` [US11993596, Compound WX003]: the pIC50 is 8.66. With `CCOc1cc2c(cc1OC)-c1c/c(=N\c3c(C)cc(C)cc3C)n(CCNc3nncs3)c(=O)n1CC2` [US11993596, Compound WX005], the pIC50 was 8.24.

The compound `CCOc1cc2c(cc1OC)-c1c/c(=N\c3c(C)cc(C)cc3C)n(CCNC(=O)c3nnc[nH]3)c(=O)n1CC2` [US11993596, Compound WX015] showed a negative-log IC50 (pIC50) of 9.25. As to `CCOc1cc2c(cc1OC)-c1c/c(=N\c3c(C)cc(C)cc3C)n(CCC(=O)Nc3nnc[nH]3)c(=O)n1CC2` [US11993596, Compound WX054], the pIC50 is 8.57. The compound `CCOc1cc2c(cc1OC)-c1c/c(=N\c3c(C)cc(C)cc3C)n(CCN(O)C(=O)c3cnn[nH]3)c(=O)n1CC2` [US11993596, Compound WX064] gave a pIC50 of 8.85.

Source of the values: BindingDB's records for patent US11993596 (Chia Tai Tianqing Pharmaceutical Group, 2024).
